Data on 15 compounds can be found in ChEMBL document CHEMBL1148733, “Novel N7- and N1-substituted cGMP derivatives are potent activators of cyclic nucleotide-gated channels” (J Med Chem, 2007).

Molecules are shown by their SMILES.

Assay [1] deals with Oocyte. Briefly: Activation of retinal rod […] CNG A1B1 channel expressed in Xenopus oocytes assessed as effect on half maximal current. The class given is cell-based. The note with it: Homo sapiens.
For assay [2], the system named is HEK293. To be noted: Homo sapiens.
Description: Activation of olfactory CNG A2A41b channel expressed in HEK293 cells assessed as effect on half maximal current

For the compound `Nc1nc2c(nc(Sc3ccc(Cl)cc3)n2[C@@H]2O[C@@H]3COP(=O)(O)O[C@H]3[C@H]2O)c(=O)n1CCS(=O)(=O)c1ccccc1`, the K1/2 in assay [1] amounted to 12 µM; in assay [2], 0.38 µM.

Turning to `CO[C@@H]1[C@@H]2OP(=O)(O)OC[C@H]2O[C@H]1n1c(Sc2ccc(Cl)cc2)nc2c(N)ncnc21`, the K1/2 in assay [2] was determined as 22 µM.

Compound `CCCC(=O)O[C@@H]1[C@@H]2OP(=O)(O)OC[C@H]2O[C@H]1n1cnc2c(=O)[nH]c(N)nc21` displayed a K1/2 in assay [2] of 88 µM.

On to `Nc1nc2c([nH]c(=S)n2[C@@H]2O[C@@H]3COP(=O)(O)O[C@H]3[C@H]2O)c(=O)[nH]1`, for which the K1/2 in assay [1] was found to be 14 µM; in assay [2] it was 0.18 µM.

In assay [2], `CCCC(=O)Nc1nc2c(ncn2[C@@H]2O[C@@H]3COP(=O)(O)O[C@H]3[C@H]2O)c(=O)[nH]1` displayed a K1/2 of 22 µM.

In the case of `CO[C@@H]1[C@@H]2OP(=O)(O)OC[C@H]2O[C@H]1n1cnc2c(=O)n(C)c(N)nc21`, in assay [2], the K1/2 turned out to be 290 µM.

For `Nc1ncnc2c1nc(Sc1ccc(Cl)cc1)n2[C@@H]1O[C@@H]2COP(=O)(O)O[C@H]2[C@H]1O`, the K1/2 in assay [2] is 0.55 µM.

Compound `CS(=O)(=O)CCn1c(=S)n([C@@H]2O[C@@H]3COP(=O)(O)O[C@H]3[C@H]2O)c2nc(N)[nH]c(=O)c21` showed a K1/2 in assay [2] of 0.11 µM.

With `CS(=O)(=O)CCSc1nc2c(=O)[nH]c(N)nc2n1[C@@H]1O[C@@H]2COP(=O)(O)O[C@H]2[C@H]1O`, the K1/2 in assay [2] stood at 0.37 µM.

For `Nc1nc2c(nc(Sc3ccc(Cl)cc3)n2[C@@H]2O[C@@H]3COP(=O)(O)O[C@H]3[C@H]2O)c(=O)[nH]1`, the K1/2 came to 1 µM in assay [1] and 0.073 µM in assay [2].

As to `CO[C@@H]1[C@@H]2OP(=O)(O)OC[C@H]2O[C@H]1n1cnc2c(=O)[nH]c(N)nc21`, in assay [2], the K1/2 came out at 35 µM.

Consider `Nc1nc2c(ncn2[C@@H]2O[C@@H]3COP(=O)(O)O[C@H]3[C@H]2O)c(=O)[nH]1`, for which the K1/2 in assay [1] is 41 µM; in assay [2], 1.1 µM.

Turning to `Nc1nc2c(c(=O)[nH]1)[n+]1c(n2[C@@H]2O[C@@H]3COP(=O)(O)O[C@H]3[C@H]2O)SCCC1`, the K1/2 in assay [2] is 10 µM.

Consider `Nc1nc2c(c(=O)[nH]1)n(CCS(=O)(=O)c1ccccc1)c(=S)n2[C@@H]1O[C@@H]2COP(=O)(O)O[C@H]2[C@H]1O`, for which the values for the K1/2 in assay [1] and in assay [2] were 4.1 µM and 0.082 µM, respectively.

Compound `Nc1nc2c(nc(SCCS(=O)(=O)c3ccccc3)n2[C@@H]2O[C@@H]3COP(=O)(O)O[C@H]3[C@H]2O)c(=O)[nH]1` gave a K1/2 in assay [2] of 0.21 µM.
